# Test results as given in publication PMC9221411, “Molecular Detection of Venous Thrombosis in Mouse Models Using SPECT/CT” (Biomolecules, 2022).
# Target: T1, human thrombi (Homo sapiens, UniProt P02671+P02675+P02679)
# T1 construct: Human plasma was allowed to clot for 90 min at 37 °C; from tissue; host or cells: citrated plasma of healthy human volunteers, clotted with CaCl2 and tissue factor
# T1 sequence (P02671 36-629 limits assumed): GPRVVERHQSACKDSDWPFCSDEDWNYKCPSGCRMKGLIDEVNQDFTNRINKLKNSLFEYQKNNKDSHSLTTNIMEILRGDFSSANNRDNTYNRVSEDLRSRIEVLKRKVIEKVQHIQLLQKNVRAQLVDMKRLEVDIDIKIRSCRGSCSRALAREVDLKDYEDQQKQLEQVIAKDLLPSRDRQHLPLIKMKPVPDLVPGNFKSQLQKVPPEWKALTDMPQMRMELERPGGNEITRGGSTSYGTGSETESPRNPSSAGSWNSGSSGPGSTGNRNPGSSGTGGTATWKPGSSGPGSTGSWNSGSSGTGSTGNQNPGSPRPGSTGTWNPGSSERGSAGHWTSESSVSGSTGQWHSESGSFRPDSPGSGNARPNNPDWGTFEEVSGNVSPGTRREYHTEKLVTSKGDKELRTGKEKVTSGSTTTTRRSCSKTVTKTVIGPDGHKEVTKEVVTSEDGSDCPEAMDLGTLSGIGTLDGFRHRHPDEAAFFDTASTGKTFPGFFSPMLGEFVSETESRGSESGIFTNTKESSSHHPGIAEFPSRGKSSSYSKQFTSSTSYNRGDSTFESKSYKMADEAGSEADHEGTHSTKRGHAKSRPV
# T1 sequence (P02675 45-491 limits assumed): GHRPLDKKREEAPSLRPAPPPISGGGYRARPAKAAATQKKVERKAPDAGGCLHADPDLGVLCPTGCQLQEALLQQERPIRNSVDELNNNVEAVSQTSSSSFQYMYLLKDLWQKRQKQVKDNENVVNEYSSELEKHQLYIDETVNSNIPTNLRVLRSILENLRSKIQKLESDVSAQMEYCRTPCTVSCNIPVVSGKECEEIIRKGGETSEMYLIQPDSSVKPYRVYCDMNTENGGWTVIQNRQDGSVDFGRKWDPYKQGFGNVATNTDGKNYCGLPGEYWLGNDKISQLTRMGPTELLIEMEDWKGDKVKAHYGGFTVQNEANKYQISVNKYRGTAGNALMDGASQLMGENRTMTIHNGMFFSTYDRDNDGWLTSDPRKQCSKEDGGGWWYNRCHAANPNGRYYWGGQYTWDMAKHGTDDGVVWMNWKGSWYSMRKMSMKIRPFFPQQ
# T1 sequence (P02679 27-437 isoform P02679-2 limits assumed): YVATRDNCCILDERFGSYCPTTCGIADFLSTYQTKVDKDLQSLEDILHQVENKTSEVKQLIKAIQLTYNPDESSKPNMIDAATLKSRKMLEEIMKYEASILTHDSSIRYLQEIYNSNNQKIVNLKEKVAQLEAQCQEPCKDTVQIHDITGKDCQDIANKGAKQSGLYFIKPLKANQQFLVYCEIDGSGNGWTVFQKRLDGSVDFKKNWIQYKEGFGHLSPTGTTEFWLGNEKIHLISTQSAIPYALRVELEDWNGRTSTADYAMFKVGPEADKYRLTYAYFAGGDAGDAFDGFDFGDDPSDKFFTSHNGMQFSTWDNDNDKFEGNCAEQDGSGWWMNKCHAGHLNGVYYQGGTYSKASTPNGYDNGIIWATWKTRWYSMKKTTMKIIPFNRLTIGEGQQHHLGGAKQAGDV
# Assay: In vitro probe depletion: incorporation of rhodamine-labelled probes into human plasma thrombi (OD570 of supernatant)
# Format: binding
# Conditions: mean
# Experimental: Human blood was collected from healthy volunteers by venipuncture using a vacutainer tube containing trisodium citrate after signing informed consent (Helsinki declaration). […] At the indicated time points, the OD570 of the supernatant was measured. Mouse blood was collected through a tail vein puncture, and plasma from 6 mice was pooled. Human and mouse thrombi were allowed to form as described above and subsequently incubated with 100 μ L or 16 ng/ μ L ^111 In-A16 or ^111 In-control-A16. After 30, 60 and 180 min, the thrombi were washed twice with 1 mL PBS, and the amount of tracer uptake in the thrombi was calculated using gamma counting (Wallac Wizard, Turku, Finland). Data were expressed as the percentage of tracer uptake in the thrombi to the total amount of tracer added.
# LisB-A16 was compared with bi- α 2-AP-CA. Human plasma was allowed to clot for 90 min at 37 °C, after which a 3 μ M probe was added. The decrease in probe left in the solution was measured by colourimetry and represented probe incorporation into the human thrombi (Figure 2A). […]
# Figure 2 In vitro probe depletion. […] OD (570 nm) in solution was measured after 1, 2, 3 and 4 h as a measure of probe incorporation in thrombi. […]
# OD (570 nm) in soluti on was measured after 1, 2, 3 and 4 hours , as a measure of probe […]
substance,measurement,setting,value
"Ac-GNQEQVSPLTLLK1-K(LisB)K-NH 2 [LisB-A16, red fluorescent A16 probe conjugated with Lissamine rhodamine-B]",absorption at 570 nm of probe left in solution (probe incorporation into human thrombi),"3 μM probe added to human plasma thrombi formed 90 min at 37 °C (14 mM CaCl2, 0.6 nM TF), OD570 of supernatant measured after 1, 2, 3 and 4 h, n = 4, lower = more incorporation",53%
same,remaining probe in solution,"15 μM probe added to human plasma thrombi formed 90 min at 37 °C, OD570 of supernatant after 1, 2, 3 and 4 h, n = 4 (Figure S2)",61%
